Reference: article PMC10916382, “Repurposing screen identifies novel candidates for broad-spectrum coronavirus antivirals and druggable host targets” (Antimicrobial Agents and Chemotherapy, 2024)
Where a name gives a salt, the structure may show the parent alone. Read-outs that look alike come from different tables or passages of the source.

Legend:
[1] = tested on: HCoV-229E; assay: microbe, parasite or virus in culture; format: cell-based, Homo sapiens sapiens; details: Human coronavirus 229E
[2] = tested on: Huh-7.5/F-Luc cells
[3] = tested on: SARS-CoV-2
[4] = in vitro; details: human
[5] = in vitro
[6] = Huh7.5, read-out: IC50 (µM), HCoV 229E
[7] = Huh-7.5/F-Luc cells, maximum tested dose 5 µM
[8] = Calu-3 cells, immunofluorescence imaging
[9] = Anti-SARS-CoV-2 screening on Calu-3 cells: viability [% of control], Calu-3 cells
[10] = Huh-7.5 cells, dose series, maximum tested dose 5 µM

Row | SMILES | IC50 [1, 6] [µM] | viability at 5 µM [4] [%] | CC50 (µM) [2, 7] | Anti-SARS-CoV-2 screening on Calu-3 cells: intracellular SARS-CoV-2 infection measured via immunofluorescence imaging [% of control] [3, 8] | viability [5, 9] [%] | IC50 ([1]; Huh7.5) [µM] | CC50 (µM) [2, 10] | further results
1 | CN1CCN(CC/C=C2/c3ccccc3Sc3ccc(S(=O)(=O)N(C)C)cc32)CC1 [RFM-003-384-1] | 1.22 | 148 | – | – | – | – | – | CC50 (µM) [2]: greater than maximum tested dose; Anti-SARS-CoV-2 screening on Calu-3 cells: intracellular SARS-CoV-2 infection measured via immunofluorescence imaging [% of control] [3]: 116.45 % of control; viability at 48 h, 5 µM [5]: 114%
2 | OC1CCN(CCCN2c3ccccc3Sc3ccc(C(F)(F)F)cc32)C1 (centres unmarked) [RFM-010-589-5] | 1.4 | 146 | greater than maximum tested dose | 102.40 % of control | 110 | – | – | –
3 | Cc1c(NCCN2CCCC2)cc(C(=O)C(C)(C)C)cc1N1CCN(c2ncnc3[nH]nc(Br)c23)CC1 [RFM-011-974-4] | 1.4 | 124 | greater than maximum tested dose | 103.98 % of control | 104 | – | – | –
4 | OCCN1CCN(CCCC2c3ccc(F)cc3Sc3ccc(C(F)(F)F)cc32)CC1 (centres unmarked) [RFM-010-066-3] | 2.98 | 148 | greater than maximum tested dose | 109.58 % of control | 86.5 | – | – | –
5 | CC(OCCN1CCCCCC1)(c1ccccc1)c1ccc(Cl)cc1 (centres unmarked) [RFM-000-944-9] | 1.87 | 146 | greater than maximum tested dose | 104.31 % of control | 95.3 | – | – | –
6 | OCCN1CCN(CCC=C2c3ccccc3Sc3ccc(C(F)(F)F)cc32)CC1 [RFM-000-079-3] | 1.73 | 145 | greater than maximum tested dose | 104.52 % of control | – | – | – | viability at 48 h, 5 µM [5]: 105%
7 | COc1cc2c(cc1NS(=O)(=O)c1ccc(-c3ccc(Cl)s3)cc1)CCN(C)CC2 [RFM-010-759-5] | 1.73 | 133 | greater than maximum tested dose | 107.82 % of control | 92.9 | – | – | –
8 | C[C@@H]1CCCN1CCc1cc2cc(-c3ccc(C#N)cc3)ccc2o1 [RFM-000-099-7] | 1.39 | 152 | greater than maximum tested dose | 114.07 % of control | 98.3 | – | – | –
9 | CCCN(CCC)C(=O)C(Cc1ccc(OCCCN2CCN(C)CC2)cc1)NC(=O)c1cccc(Cl)c1 (centres unmarked) [RFM-012-155-1] | 3.67 | 126 | greater than maximum tested dose | 95.12 % of control | 104 | – | – | –
10 | CC(C)Oc1ccc(-c2nc(-c3cccc4c3CC[C@@H]4NCCO)no2)cc1C#N [CBR-001-211-015-5] | 1.17 | 129 | greater than maximum tested dose | – | – | – | – | –
11 | CN(C)CCCN1c2ccccc2Sc2ccc(C(F)(F)F)cc21 [RFM-004-217-1] | 1.19 | 159 | – | – | – | – | – | CC50 (µM) [2]: greater than maximum tested dose; Anti-SARS-CoV-2 screening on Calu-3 cells: intracellular SARS-CoV-2 infection measured via immunofluorescence imaging [% of control] [3]: 110.23 % of control; viability at 48 h, 5 µM [5]: 72.7%
12 | OCCN1CCN(CCCN2c3ccccc3Sc3ccc(C(F)(F)F)cc32)CC1 [RFM-001-668-2] | – | 154 | greater than maximum tested dose | 116.92 % of control | 99 | – | – | –
13 | OCCN1CCN(CC/C=C2/c3ccccc3Sc3ccc(Cl)cc32)CC1 [ZUCLOPENTHIXOL] | – | – | – | 108.85 % of control | – | 1.13 | greater than maximum tested dose | viability at 48 h, 5 µM [5]: 110%
14 | CN1CCC(c2cn(C)c3ccc(OS(=O)(=O)c4c(F)cccc4F)cc23)CC1 [LY-483518] | – | – | – | 109.16 % of control | – | 1.03 | greater than maximum tested dose | viability at 48 h, 5 µM [5]: 111%
15 | Oc1ccc2c(c1)CC[C@H](c1ccccc1)[C@@H]2c1ccc(OCCN2CCCC2)cc1 [Lasofoxifene] | – | – | – | 119.41 % of control | 92.8 | 0.75 | greater than maximum tested dose | –
16 | Cc1c(-c2ccc(O)cc2)n(Cc2ccc(OCCN3CCCCCC3)cc2)c2ccc(O)cc12 [RFM-002-868-2] | – | 165 | greater than maximum tested dose | 103.07 % of control | – | – | – | viability at 48 h, 5 µM [5, 9]: 96.9%
17 | CCNCc1cc(Nc2ccnc3cc(Cl)ccc23)ccc1O [CBR-001-843-604-9] | 1.43 | 131 | greater than maximum tested dose | – | – | – | – | –
18 | CC/C(=C(\c1ccc(O)cc1)c1ccc(OCCN(C)C)cc1)c1ccccc1 [Afimoxifene] | – | – | – | 100.60 % of control | 93.4 | 0.63 | greater than maximum tested dose | –
19 | CN(C)CCOc1ccc(/C(=C(/CCCl)c2ccccc2)c2ccccc2)cc1 [TOREMIFENE CITRATE] | – | – | – | 114.97 % of control | – | 1.02 | greater than maximum tested dose | viability [5]: 95.3%
20 | CS[C@H]1SC[C@H]2C(=O)N(C)[C@@H](C(C)C)C(=O)OC[C@@H](NC(=O)c3cnc4ccccc4n3)C(=O)N[C@@H](C)C(=O)N(C)[C@@H]1C(=O)N(C)[C@@H](C(C)C)C(=O)OC[C@@H](NC(=O)c1cnc3ccccc3n1)C(=O)N[C@@H](C)C(=O)N2C [Echinomycin] | – | – | – | 92.25 % of control | – | – | greater than maximum tested dose | IC50 ([1]; Huh7.5, read-out: IC50): 0.1 µM; viability [5]: 95.2%
21 | CC(C)(C)NC[C@H](O)COc1ccccc1C1CCCC1 [penbutolol] | – | – | – | 102.38 % of control | – | 1.05 | greater than maximum tested dose | viability at 48 h, 5 µM [5]: 101%
22 | COc1cccc2c1C(=O)c1c(O)c3c(c(O)c1C2=O)C[C@@](O)(C(=O)CO)C[C@@H]3O[C@H]1C[C@H](N2CCO[C@H](OC)C2)[C@H](O)[C@H](C)O1 [NEMORUBICIN] | – | – | – | 46.15 % of control | – | – | greater than maximum tested dose | IC50 ([1]; Huh7.5, read-out: IC50): 0.17 µM; viability [5]: 16.5%
23 | CO[C@@H]1[C@H](O)C[C@@H](O[C@@H]2C[C@H](Oc3cc4cc5c(c(O)c4c(O)c3C)C(=O)[C@@H](O[C@H]3C[C@@H](O[C@H]4C[C@@H](O[C@H]6C[C@](C)(O)[C@@H](OC(C)=O)[C@H](C)O6)[C@H](O)[C@@H](C)O4)[C@H](O)[C@@H](C)O3)[C@H]([C@H](OC)C(=O)[C@@H](O)[C@@H](C)O)C5)O[C@H](C)[C@@H]2OC(C)=O)O[C@@H]1C [CHROMOMYCIN A3] | – | – | – | 60.39 % of control | 61.3 | – | greater than maximum tested dose | IC50 ([1]; Huh7.5, read-out: IC50): 0.16 µM
24 | CCSc1ccc2c(c1)N(CCCN1CCN(C)CC1)c1ccccc1S2 [Thiethylperazine dimaleate] | – | – | – | 110.38 % of control | 95.3 | 0.93 | greater than maximum tested dose | –
25 | COc1ccc(C(C)C)cc1CN[C@@H]1C2CCN(CC2)[C@H]1C(c1ccccc1)c1ccccc1 [RFM-011-107-9] | – | – | – | 82.87 % of control | – | 1.1 | greater than maximum tested dose | viability at 48 h, 5 µM [5]: 83.9%
26 | COc1ccc2c(c1)CCC(c1ccccc1)=C2c1ccc(OCCN2CCCC2)cc1 [nafoxidine] | – | – | – | 104.91 % of control | – | 0.37 | greater than maximum tested dose | viability at 48 h, 5 µM [5]: 110%
27 | CNCc1ccc(OC)c([C@@]2(N3CCC[C@H]3c3ncco3)C(=O)N(S(=O)(=O)c3ccc(OC)cc3)c3ccc(Cl)cc32)c1 [RFM-011-199-9] | – | – | – | 113.08 % of control | 95.4 | 0.8 | greater than maximum tested dose | –
28 | COCC(=O)O[C@]1(CCN(C)CCCc2nc3ccccc3[nH]2)CCc2cc(F)ccc2[C@@H]1C(C)C [mibefradil dihydrochloride] | – | – | – | 108.00 % of control | 98.3 | 1.03 | greater than maximum tested dose | –
29 | CC(C)(C)NCc1ccc(Nc2ccnc3cc(Cl)ccc23)cc1O [N-tert-Butylisoquine] | – | – | – | 111.10 % of control | 106 | 0.54 | greater than maximum tested dose | –
30 | CNC1CC(c2ccc(Cl)c(Cl)c2)c2ccccc21 (centres unmarked) [Indatraline] | – | – | – | 97.64 % of control | 88.1 | – | greater than maximum tested dose | IC50 ([1]; Huh7.5, read-out: IC50): 0.83 µM
